The record followed here is BindingDB's records for doi:10.1016/s0960-894x(99)00095-5 (Warner-Lambert, 1999).

pIC50: −log10 of the molar value.

The experiment addresses Trypsin (Bos taurus). The experiment is described as follows: In vitro for inhibition of purified bovine trypsin.

`CN(c1nc2ccccc2c(=O)o1)S(=O)(=O)c1ccc(Cl)c(Cl)c1` [3,4-Dichloro-N-methyl-N-(4-oxo-4H-benzo[d][1,3]oxazin-2-yl)-benzenesulfonamide] showed a pIC50 of 5.08. For the compound `Cc1ccc(S(=O)(=O)N(C)c2nc3ccccc3c(=O)o2)cc1` [4,N-Dimethyl-N-(4-oxo-4H-benzo[d][1,3]oxazin-2-yl)-benzenesulfonamide], the pIC50 is 5.35. For `CN(c1nc2ccccc2c(=O)o1)S(=O)(=O)c1ccc(Cl)cc1` [4-Chloro-N-methyl-N-(4-oxo-4H-benzo[d][1,3]oxazin-2-yl)-benzenesulfonamide] the value was 5.89; for `COc1ccc(S(=O)(=O)N(C)c2nc3ccccc3c(=O)s2)cc1` [4-Methoxy-N-methyl-N-(4-oxo-4H-benzo[d][1,3]thiazin-2-yl)-benzenesulfonamide], < 3.70; for `CN(c1nc2ccccc2c(=O)o1)S(=O)(=O)c1ccc(C(C)(C)C)cc1` [4-tert-Butyl-N-methyl-N-(4-oxo-4H-benzo[d][1,3]oxazin-2-yl)-benzenesulfonamide], 5.23. To `CN(c1nc2ccccc2c(=O)o1)S(=O)(=O)c1ccc([N+](=O)[O-])cc1` [N-Methyl-4-nitro-N-(4-oxo-4H-benzo[d][1,3]oxazin-2-yl)-benzenesulfonamide] belongs < 4.00.
